From patent US20210130826A1, “METHODS OF MODULATING ANTISENSE ACTIVITY” (IONIS PHARMACEUTICALS, INC., priority 2018, published 2021)

How the values were obtained:
Malat-1 [1] = assay: Malat-1 RNA by RT-qPCR in MHT cells; autophagy modulator, then oligonucleotide by free uptake; format: cell-based, mouse; details: for effect of autophagy modulator on modified oligonucleotide activity (in words): MOE gapmer 399462, relative to DMSO; for effect of autophagy modulator on antisense activity (in words): cEt gapmer 556089, relative to DMSO
Experimental: MHT cells (a mouse hepatocellular carcinoma cell line) were plated at 20,000 cells/well and treated with DMSO (control) or an autophagy modulator for 24 hours at the concentrations indicated in Table 2 below. 3-MA, BafA1, AZD8055, and leupeptin are […]. […] Fourteen hours after the addition of autophagy modulators, 10 μM of a modified control oligonucleotide or of a modified antisense oligonucleotide was added by free uptake for ten hours. The modified oligonucleotides, shown in Table 1 below, are 3-10-3 cEt gapmers in which every internucleoside linkage is a phosphorothioate internucleoside linkage. The three 5′-terminal nucleosides and the three 3′-terminal nucleosides of each oligonucleotide each comprise a cEt modified sugar moiety. The remaining ten nucleosides of each oligonucleotide each comprise an unmodified, 2′-deoxy sugar moiety.
Using the primer probe sets described in Table 3 below, RT-qPCR analysis was performed to detect RNA levels of Malat-1, shown in Table 4 and markers of autophagy, (Rab7, LAMP2, Atg7, ULK1, ULK2, Atg5, Beclin, and c-Jun), shown in Table 5. Results were normalized to cyclophilin A levels. To control for global effects of autophagy modulators on gene expression, Malat-1 RNA levels after treatment with an antisense oligonucleotide and an autophagy modulator were normalized to Malat-1 RNA levels in cells treated with control Compound No. 549148 and the same autophagy modulator.
MHT cells were plated at 20,000 cells/well and treated with DMSO (control) or an autophagy modulator for 24 hours, at the concentrations indicated Table 7 below. Fourteen hours after the addition of autophagy modulator, control or antisense oligonucleotides (see Table 6) were added at 1 μM, 2.5 μM, 5 μM, or 10 μM by free uptake for ten hours. The modified oligonucleotides, shown in Table 6 below, are 5-10-5 MOE gapmers in which every internucleoside linkage is a phosphorothioate internucleoside linkage. The five 5′-terminal nucleosides and the five 3′-terminal nucleosides of each oligonucleotide each comprise a 2′-MOE modified sugar moiety. The remaining ten nucleosides of each oligonucleotide each comprise an unmodified, 2′-deoxy sugar moiety.
RT-qPCR analysis was performed to detect RNA levels of Malat-1 using primer probe set 15877 (described in Example 1). In order to control for global effects of autophagy modulators on gene expression, Malat-1 RNA levels after treatment with an antisense oligonucleotide and an autophagy modulator were normalized to Malat-1 RNA levels in cells treated with control Compound No. 141923 and the same autophagy modulator. Each table below represents results from an individual assay.

Malat-1 [2] = assay: Malat-1 RNA by RT-qPCR in A431 cells; format: cell-based, human; details: MOE gapmer
Experimental: RT-qPCR analysis was performed to detect RNA levels of Malat-1 using primer probe set RTS2736. Results were normalized to cyclophilin A levels (measured using HTS3936). […] Each table below represents results from an individual assay.

[3] = test system: mTOR kinase activity (pS6/S6 levels); assay: Liver protein analysis in mice: pS6/S6; format: in vivo; details: Table 34; mouse liver 24 h; oligonucleotide 5 mg/kg (or PBS); Treatment Rapamycin 5 mg/kg at 0, 12, 22 h
Experimental: The following experiments were performed to determine if the effects of autophagy modulators on antisense activity in vitro can be observed in vivo. […] Following administration of modified oligonucleotide, mice were administered 1% DMSO or 5 mg/kg AZD8055 in 1% DMSO at three time points over 24 hours: at the time of administration of the modified oligonucleotide, and 12 and 22 hours after administration of the modified oligonucleotide. A group of control mice was administered PBS at time 0 and 1% DMSO at 0, 12, and 22 hours. Mice were sacrificed at 24 hours after administration of the modified oligonucleotide and tissues were collected for analysis.
Protein analysis was carried out on liver tissue using standard procedures. All proteins were normalized to α-tubulin. […] The antibody against LC3B (ab48394) was purchased from Abcam. […] Antibody against P62 (GP62-C) was purchased from Progen.
A group of control mice was administered PBS at time 0 and 1% DMSO at 0, 12, and 22 hours. Mice were sacrificed at 24 hours after administration of the modified oligonucleotide and tissues were collected for analysis. […]

LC3B = assay: Liver protein analysis in mice: LC3B II/I ratio; format: in vivo; details: Table 34; mouse liver 24 h; oligonucleotide 5 mg/kg (or PBS); Treatment Rapamycin 5 mg/kg at 0, 12, 22 h
Experimental: (§1) The following experiments were performed to determine if the effects of autophagy modulators on antisense activity in vitro can be observed in vivo. Groups of 3-4 8-week-old male C57bl/6J mice were administered 5 mg/kg control oligonucleotide 141923, or 5 mg/kg antisense oligonucleotide 399462. Following administration of modified oligonucleotide, mice were administered 1% DMSO or 5 mg/kg AZD8055 in 1% DMSO at three time points over 24 hours: at the time of administration of the modified oligonucleotide, and 12 and 22 hours after administration of the modified oligonucleotide. A group of control mice was administered PBS at time 0 and 1% DMSO at 0, 12, and 22 hours. Mice were sacrificed at 24 hours after administration of the modified oligonucleotide and tissues were collected for analysis.
(§2) Autophagy activation was confirmed in livers by determining suppression of mTOR kinase activity (pS6/S6 levels), determining an increased LC3B II/I ratio (a marker for the formation of autophagosomes), and determining p62 degradation (related to the clearance of autophagosomes). Protein analysis was carried out on liver tissue using standard procedures. All proteins were normalized to α-tubulin. Phospho-S6 Ribosomal Protein (Ser240/244) (2215S), and S6 Ribosomal Protein (2217S) antibodies were obtained from Cell Signaling Technology. The antibody against LC3B (ab48394) was purchased from Abcam. […]

p62 = assay: Liver protein analysis in mice: p62; format: in vivo; details: Table 34; mouse liver 24 h; oligonucleotide 5 mg/kg (or PBS); Treatment Rapamycin 5 mg/kg at 0, 12, 22 h
Experimental: as §1, §2

Malat-1 [4] = assay: MALAT-1 RNA in mouse liver by RT-qPCR; format: in vivo; details: Table 35; mouse liver 24 h; oligonucleotide 5 mg/kg; rapamycin 5 mg/kg at 0, 12, 22 h
Experimental: The following experiments were performed to determine if the effects of autophagy modulators on antisense activity in vitro can be observed in vivo. […] Mice were sacrificed at 24 hours after administration of the modified oligonucleotide and tissues were collected for analysis. […] Atg7 mRNA levels are a marker of the induction of autophagy in treated mouse livers. Results are presented as percent change of RNA, relative to PBS control treated with DMSO, normalized to mouse cyclophilin A measured using mouse primer probe set Cyclophilin-A (forward sequence [NT], designated herein as SEQ ID NO: 38; reverse sequence [NT], designated herein as SEQ ID NO: 39; probe sequence [NT], designated herein as SEQ ID NO: 40). […] Following administration of modified oligonucleotide, groups of mice were either allowed free access to chow (control) or fasted overnight (16 hr fast). Mice were sacrificed at 16 hours after administration of the modified oligonucleotide and tissues were collected for analysis. […] Atg7 mRNA levels are a marker of the induction of autophagy in treated mouse livers. Results are presented in Table 33 relative to mice treated with PBS and allowed normal access to chow. […] Mice were sacrificed at 24 hours after administration of the modified oligonucleotide and tissues were collected for analysis. […] Atg7 mRNA levels are a marker of the induction of autophagy in treated mouse livers. […] RNA was extracted from liver tissue for real-time RTPCR analysis of MALAT1 RNA expression. Primer probe set 15877 was used to measure mouse MALAT1 RNA levels. Results are presented as percent change of RNA, relative to PBS control, normalized to mouse cyclophilin A measured using mouse primer probe set Cyclophilin-A. […] RNA was extracted from liver tissue for real-time RTPCR analysis of MALAT1 RNA expression. Primer probe set 15877 was used to measure mouse MALAT1 RNA levels. Results are presented as percent change of RNA, relative to PBS control, normalized to mouse cyclophilin A measured using mouse primer probe set Cyclophilin-A.

Atg7 = Atg7 mRNA in mouse liver by RT-qPCR; format: in vivo; details: Table 35; mouse liver 24 h; oligonucleotide 5 mg/kg; rapamycin 5 mg/kg at 0, 12, 22 h
Experimental: The following experiments were performed to determine if the effects of autophagy modulators on antisense activity in vitro can be observed in vivo. […] Mice were sacrificed at 24 hours after administration of the modified oligonucleotide and tissues were collected for analysis. […] Atg7 mRNA levels are a marker of the induction of autophagy in treated mouse livers. Results are presented as percent change of RNA, relative to PBS control treated with DMSO, normalized to mouse cyclophilin A measured using mouse primer probe set Cyclophilin-A (forward sequence [NT], designated herein as SEQ ID NO: 38; reverse sequence [NT], designated herein as SEQ ID NO: 39; probe sequence [NT], designated herein as SEQ ID NO: 40). […] Following administration of modified oligonucleotide, groups of mice were either allowed free access to chow (control) or fasted overnight (16 hr fast). Mice were sacrificed at 16 hours after administration of the modified oligonucleotide and tissues were collected for analysis. […] Atg7 mRNA levels are a marker of the induction of autophagy in treated mouse livers. Results are presented in Table 33 relative to mice treated with PBS and allowed normal access to chow. […] Mice were sacrificed at 24 hours after administration of the modified oligonucleotide and tissues were collected for analysis. […]

Row | Structure (SMILES) | effect of autophagy modulator on modified oligonucleotide activity (in words) (Malat-1 [1]) | effect of autophagy modulator on antisense activity (in words) (Malat-1 [1]) | effect of autophagy modulator on modified oligonucleotide activity (in words) (Malat-1 [2]) | further results
1 | Cn1cnc(N)c2ncnc1-2 [3-MA, 3-methyladenine] | significantly enhanced modified oligonucleotide activity | significantly enhanced antisense activity | – | –
2 | CO/C1=C\C(C)=C\[C@@H](C)[C@@H](O)[C@@H](C)C/C(C)=C/C=C/[C@H](OC)[C@@H]([C@@H](C)[C@@H](O)[C@H](C)[C@@]2(O)C[C@@H](O)[C@H](C)[C@@H](C(C)C)O2)OC1=O [BafA1, Bafilomycin A1] | significantly enhanced modified oligonucleotide activity | significantly enhanced antisense activity | significantly enhanced modified oligonucleotide activity | –
3 | CCOC(=O)[C@H]1O[C@@H]1C(=O)N[C@@H](CC(C)C)C(=O)NCCC(C)C [E64D] | reduced activity of modified oligonucleotide | – | – | –
4 | CC(=O)N[C@@H](CC(C)C)C(=O)N[C@@H](CC(C)C)C(=O)N[C@H](C=O)CCCNC(=N)N [Leupeptin] | significantly enhanced modified oligonucleotide activity | significantly enhanced antisense activity | significantly enhanced modified oligonucleotide activity | –
5 | CO[C@H]1C[C@@H]2CC[C@@H](C)[C@@](O)(O2)C(=O)C(=O)N2CCCC[C@H]2C(=O)O[C@H]([C@H](C)C[C@@H]2CC[C@@H](O)[C@H](OC)C2)CC(=O)[C@H](C)/C=C(\C)[C@@H](O)[C@@H](OC)C(=O)[C@H](C)C[C@H](C)/C=C/C=C/C=C/1C [Rapamycin] | – | – | – | pS6/S6 ratio [3]: 0.7; LC3B II/I ratio (LC3B): 1.3; P62 (p62): 0.8; Malat-1 level (% relative to PBS/DMSO mice) (Malat-1 [4]): 89%; Atg7 level (% relative to PBS/DMSO mice) (Atg7): 111%
6 | CC(C)C(=O)CN1c2nc(N3CCOC[C@H]3C)cc(=O)n2CC[C@H]1C(F)(F)F [VPS34-IN2] | significantly enhanced modified oligonucleotide activity | – | significantly enhanced modified oligonucleotide activity | –
7 | CC[C@]1(O)C[C@@H]2CN(CCc3c([nH]c4ccccc34)[C@@](C(=O)OC)(c3cc4c(cc3OC)N(C)[C@H]3[C@@](O)(C(=O)OC)[C@H](OC(C)=O)[C@]5(CC)C=CCN6CC[C@]43[C@@H]65)C2)C1 [Vinblastine] | significantly enhanced modified oligonucleotide activity | – | – | –
